Source: patent publication US9006188B2, “Co-crystals of dapagliflozin” (Mapi Pharma Ltd., priority 2013, dated 2015)
One block for each molecule: values may come before it.

Assay: Hygroscopicity by Dynamic Vapor Sorption (DVS), sorption/desorption profile
Assay type: physicochemical
Conditions: for weight gain from 0 to 95% RH / Change In Mass (%) - ref, Desorption / Change In Mass (%) - ref, Sorption / Change In Mass (%) - ref, Hysteresis: DVS 25° C.; for hygroscopicity classification: based on DVS weight gain from 0 to 95% RH
Description: The preparation of lactose co-crystal and asparagine co-crystal were scaled up and repeated (about 400 mg of dapagliflozin free form was dissolved in 26 ml of IPA) and XRPD, PLM, TGA, DSC, NMR and DVS analyses were conducted for physicochemical properties evaluation. Before physicochemical properties evaluation, the solids precipitated out were isolated and dried off at 40° C. for 4 hours in vacuum drier. After hygroscopicity test, the sample was retested by XRPD to determine if any form transformation during the DVS test.
The sorption/desorption profiles of dapagliflozin Form I were tested at 25° C. under 0-95% relative humidity. […] This sample was tested by XRPD.

weight gain from 0 to 95% RH: 1.80% | Change In Mass (%) - ref, Desorption (cycle 1, target 0.0 % P/Po): 0.159% | Change In Mass (%) - ref, Sorption (cycle 1, target 0.0 % P/Po): 0.002% | Change In Mass (%) - ref, Desorption (cycle 1, target 5.0 % P/Po): 0.302% | Change In Mass (%) - ref, Hysteresis (cycle 1, target 5.0 % P/Po): 0.071% | Change In Mass (%) - ref, Sorption (cycle 1, target 5.0 % P/Po): 0.231% | Change In Mass (%) - ref, Desorption (cycle 1, target 10.0 % P/Po): 0.341% | Change In Mass (%) - ref, Hysteresis (cycle 1, target 10.0 % P/Po): 0.071% | Change In Mass (%) - ref, Sorption (cycle 1, target 10.0 % P/Po): 0.270% | Change In Mass (%) - ref, Desorption (cycle 1, target 15.0 % P/Po): 0.364% | Change In Mass (%) - ref, Hysteresis (cycle 1, target 15.0 % P/Po): 0.060% | Change In Mass (%) - ref, Sorption (cycle 1, target 15.0 % P/Po): 0.304% | Change In Mass (%) - ref, Desorption (cycle 1, target 20.0 % P/Po): 0.371% | Change In Mass (%) - ref, Hysteresis (cycle 1, target 20.0 % P/Po): 0.035% | Change In Mass (%) - ref, Sorption (cycle 1, target 20.0 % P/Po): 0.336% | Change In Mass (%) - ref, Desorption (cycle 1, target 25.0 % P/Po): 0.392% | Change In Mass (%) - ref, Hysteresis (cycle 1, target 25.0 % P/Po): 0.022% | Change In Mass (%) - ref, Sorption (cycle 1, target 25.0 % P/Po): 0.370% | Change In Mass (%) - ref, Desorption (cycle 1, target 30.0 % P/Po): 0.412% | Change In Mass (%) - ref, Hysteresis (cycle 1, target 30.0 % P/Po): 0.009% | Change In Mass (%) - ref, Sorption (cycle 1, target 30.0 % P/Po): 0.404% | Change In Mass (%) - ref, Desorption (cycle 1, target 35.0 % P/Po): 0.440% | Change In Mass (%) - ref, Hysteresis (cycle 1, target 35.0 % P/Po): −0.006% | Change In Mass (%) - ref, Sorption (cycle 1, target 35.0 % P/Po): 0.446% | Change In Mass (%) - ref, Desorption (cycle 1, target 40.0 % P/Po): 0.474% | Change In Mass (%) - ref, Hysteresis (cycle 1, target 40.0 % P/Po): −0.020% | Change In Mass (%) - ref, Sorption (cycle 1, target 40.0 % P/Po): 0.493% | Change In Mass (%) - ref, Desorption (cycle 1, target 45.0 % P/Po): 0.517% | Change In Mass (%) - ref, Hysteresis (cycle 1, target 45.0 % P/Po): −0.026% | Change In Mass (%) - ref, Sorption (cycle 1, target 45.0 % P/Po): 0.542% | Change In Mass (%) - ref, Desorption (cycle 1, target 50.0 % P/Po): 0.565% | Change In Mass (%) - ref, Hysteresis (cycle 1, target 50.0 % P/Po): −0.042% | Change In Mass (%) - ref, Sorption (cycle 1, target 50.0 % P/Po): 0.607% | Change In Mass (%) - ref, Desorption (cycle 1, target 55.0 % P/Po): 0.600% | Change In Mass (%) - ref, Hysteresis (cycle 1, target 55.0 % P/Po): −0.073% | Change In Mass (%) - ref, Sorption (cycle 1, target 55.0 % P/Po): 0.673% | Change In Mass (%) - ref, Desorption (cycle 1, target 60.0 % P/Po): 0.650% | Change In Mass (%) - ref, Hysteresis (cycle 1, target 60.0 % P/Po): −0.086% | Change In Mass (%) - ref, Sorption (cycle 1, target 60.0 % P/Po): 0.736% | Change In Mass (%) - ref, Desorption (cycle 1, target 65.0 % P/Po): 0.729% | Change In Mass (%) - ref, Hysteresis (cycle 1, target 65.0 % P/Po): −0.057% | Change In Mass (%) - ref, Sorption (cycle 1, target 65.0 % P/Po): 0.786% | Change In Mass (%) - ref, Desorption (cycle 1, target 70.0 % P/Po): 0.794% | Change In Mass (%) - ref, Hysteresis (cycle 1, target 70.0 % P/Po): −0.075% | Change In Mass (%) - ref, Sorption (cycle 1, target 70.0 % P/Po): 0.869% | Change In Mass (%) - ref, Desorption (cycle 1, target 75.0 % P/Po): 0.878% | Change In Mass (%) - ref, Hysteresis (cycle 1, target 75.0 % P/Po): −0.078% | Change In Mass (%) - ref, Sorption (cycle 1, target 75.0 % P/Po): 0.956% | Change In Mass (%) - ref, Desorption (cycle 1, target 80.0 % P/Po): 1.031% | Change In Mass (%) - ref, Hysteresis (cycle 1, target 80.0 % P/Po): −0.041% | Change In Mass (%) - ref, Sorption (cycle 1, target 80.0 % P/Po): 1.072% | Change In Mass (%) - ref, Desorption (cycle 1, target 85.0 % P/Po): 1.171% | Change In Mass (%) - ref, Hysteresis (cycle 1, target 85.0 % P/Po): −0.030% | Change In Mass (%) - ref, Sorption (cycle 1, target 85.0 % P/Po): 1.201% | Change In Mass (%) - ref, Desorption (cycle 1, target 90.0 % P/Po): 1.378% | Change In Mass (%) - ref, Hysteresis (cycle 1, target 90.0 % P/Po): −0.019% | Change In Mass (%) - ref, Sorption (cycle 1, target 90.0 % P/Po): 1.397% | Change In Mass (%) - ref, Desorption (cycle 1, target 95.0 % P/Po): 1.798% | Change In Mass (%) - ref, Sorption (cycle 1, target 95.0 % P/Po): 1.798% | hygroscopicity classification: slightly hygroscopic
SMILES: CCOc1ccc(Cc2cc(C3OC(CO)C(O)C(O)C3O)ccc2Cl)cc1.NC(=O)CC(N)C(=O)O (stereo not drawn) [Asparagine co-crystal]

weight gain from 0 to 95% RH: 2.16% | Change In Mass (%) - ref, Desorption (cycle 1, target 0.0 % P/Po): 0.077% | Change In Mass (%) - ref, Sorption (cycle 1, target 0.0 % P/Po): 0.000% | Change In Mass (%) - ref, Desorption (cycle 1, target 5.0 % P/Po): 0.104% | Change In Mass (%) - ref, Hysteresis (cycle 1, target 5.0 % P/Po): 0.083% | Change In Mass (%) - ref, Sorption (cycle 1, target 5.0 % P/Po): 0.021% | Change In Mass (%) - ref, Desorption (cycle 1, target 10.0 % P/Po): 0.120% | Change In Mass (%) - ref, Hysteresis (cycle 1, target 10.0 % P/Po): 0.078% | Change In Mass (%) - ref, Sorption (cycle 1, target 10.0 % P/Po): 0.042% | Change In Mass (%) - ref, Desorption (cycle 1, target 15.0 % P/Po): 0.136% | Change In Mass (%) - ref, Hysteresis (cycle 1, target 15.0 % P/Po): 0.073% | Change In Mass (%) - ref, Sorption (cycle 1, target 15.0 % P/Po): 0.064% | Change In Mass (%) - ref, Desorption (cycle 1, target 20.0 % P/Po): 0.151% | Change In Mass (%) - ref, Hysteresis (cycle 1, target 20.0 % P/Po): 0.066% | Change In Mass (%) - ref, Sorption (cycle 1, target 20.0 % P/Po): 0.085% | Change In Mass (%) - ref, Desorption (cycle 1, target 25.0 % P/Po): 0.170% | Change In Mass (%) - ref, Hysteresis (cycle 1, target 25.0 % P/Po): 0.063% | Change In Mass (%) - ref, Sorption (cycle 1, target 25.0 % P/Po): 0.107% | Change In Mass (%) - ref, Desorption (cycle 1, target 30.0 % P/Po): 0.188% | Change In Mass (%) - ref, Hysteresis (cycle 1, target 30.0 % P/Po): 0.058% | Change In Mass (%) - ref, Sorption (cycle 1, target 30.0 % P/Po): 0.131% | Change In Mass (%) - ref, Desorption (cycle 1, target 35.0 % P/Po): 0.213% | Change In Mass (%) - ref, Hysteresis (cycle 1, target 35.0 % P/Po): 0.053% | Change In Mass (%) - ref, Sorption (cycle 1, target 35.0 % P/Po): 0.160% | Change In Mass (%) - ref, Desorption (cycle 1, target 40.0 % P/Po): 0.238% | Change In Mass (%) - ref, Hysteresis (cycle 1, target 40.0 % P/Po): 0.036% | Change In Mass (%) - ref, Sorption (cycle 1, target 40.0 % P/Po): 0.201% | Change In Mass (%) - ref, Desorption (cycle 1, target 45.0 % P/Po): 0.266% | Change In Mass (%) - ref, Hysteresis (cycle 1, target 45.0 % P/Po): 0.022% | Change In Mass (%) - ref, Sorption (cycle 1, target 45.0 % P/Po): 0.244% | Change In Mass (%) - ref, Desorption (cycle 1, target 50.0 % P/Po): 0.296% | Change In Mass (%) - ref, Hysteresis (cycle 1, target 50.0 % P/Po): 0.013% | Change In Mass (%) - ref, Sorption (cycle 1, target 50.0 % P/Po): 0.283% | Change In Mass (%) - ref, Desorption (cycle 1, target 55.0 % P/Po): 0.330% | Change In Mass (%) - ref, Hysteresis (cycle 1, target 55.0 % P/Po): 0.007% | Change In Mass (%) - ref, Sorption (cycle 1, target 55.0 % P/Po): 0.323% | Change In Mass (%) - ref, Desorption (cycle 1, target 60.0 % P/Po): 0.366% | Change In Mass (%) - ref, Hysteresis (cycle 1, target 60.0 % P/Po): 0.003% | Change In Mass (%) - ref, Sorption (cycle 1, target 60.0 % P/Po): 0.363% | Change In Mass (%) - ref, Desorption (cycle 1, target 65.0 % P/Po): 0.410% | Change In Mass (%) - ref, Hysteresis (cycle 1, target 65.0 % P/Po): 0.000% | Change In Mass (%) - ref, Sorption (cycle 1, target 65.0 % P/Po): 0.409% | Change In Mass (%) - ref, Desorption (cycle 1, target 70.0 % P/Po): 0.465% | Change In Mass (%) - ref, Hysteresis (cycle 1, target 70.0 % P/Po): 0.000% | Change In Mass (%) - ref, Sorption (cycle 1, target 70.0 % P/Po): 0.466% | Change In Mass (%) - ref, Desorption (cycle 1, target 75.0 % P/Po): 0.531% | Change In Mass (%) - ref, Hysteresis (cycle 1, target 75.0 % P/Po): −0.004% | Change In Mass (%) - ref, Sorption (cycle 1, target 75.0 % P/Po): 0.534% | Change In Mass (%) - ref, Desorption (cycle 1, target 80.0 % P/Po): 0.618% | Change In Mass (%) - ref, Hysteresis (cycle 1, target 80.0 % P/Po): −0.004% | Change In Mass (%) - ref, Sorption (cycle 1, target 80.0 % P/Po): 0.622% | Change In Mass (%) - ref, Desorption (cycle 1, target 85.0 % P/Po): 0.768% | Change In Mass (%) - ref, Hysteresis (cycle 1, target 85.0 % P/Po): 0.005% | Change In Mass (%) - ref, Sorption (cycle 1, target 85.0 % P/Po): 0.762% | Change In Mass (%) - ref, Desorption (cycle 1, target 90.0 % P/Po): 1.081% | Change In Mass (%) - ref, Hysteresis (cycle 1, target 90.0 % P/Po): 0.069% | Change In Mass (%) - ref, Sorption (cycle 1, target 90.0 % P/Po): 1.012% | Change In Mass (%) - ref, Desorption (cycle 1, target 95.0 % P/Po): 2.162% | Change In Mass (%) - ref, Sorption (cycle 1, target 95.0 % P/Po): 2.162% | hygroscopicity classification: hygroscopic
SMILES: CCOc1ccc(Cc2cc(C3OC(CO)C(O)C(O)C3O)ccc2Cl)cc1.OCC1OC(OC2C(CO)OC(O)C(O)C2O)C(O)C(O)C1O (stereo not drawn) [lactose co-crystal]
